This assay has as its system rats with crushed sciatic nerves. The assay is described as follows: Curative effect on rats with crushed sciatic nerves. As to conditions: for Rate of recovery in muscle weight: soleus muscle, saline 51.8 ± 1.2. The format is in vivo, rat (male Wistar). How it is done:
Curative effect on rats with crushed sciatic nerves:
The curing effect of the compound (I) of the invention was tested on rats having crushed scietic nerves as a model of peripheral nervous disorder using (1) a change in the action of the hind paw with the crushed sciatic nerves and (2) a change in the weight of the muscle as an index of the course of degeneration and regeneartion of peripheral nerves.
In the experiment, male Wistar rats (6 weeks old), seven per group, were used. The sciatic nerves were crushed by a method similar to the method of Yamatsu et al. (see Kiyomi Yamatsu, Takenori Kaneko, Akifumi Kitahara and Isao Ohkawa, Journal of Japanese Pharmacological Society, 72, 259-268 (1976) and the method of Hasegawa et al. (see Kazuo Hasegawa, Naoji Mikuni and Yutaka Sakai, Journal of Japanese Pharmacological Society, 74, 721-734 (1978). Specifically, under anesthesia with pentobarbital (40 mg/kg, i.p.), the left side sciatic nerve was exposed at the femur and that site of the exposed scietic nerve which was 5 mm to the center from the branched part between the N. tibialis and the N. suralis was crushed using a modified artery, klomme, having a width of 2 mm and a gap of 0.1 mm. After the operation, the rats were assigned to the test groups at random.
Compound No. 408 was selected as the compound (I) of the invention and intraperitoneally administered to the rats once a day from the day of operation to the 22nd day. A group to which mecobalamin (made by Gedeon Richter Ltd.) was administered and a group to which 0.9% saline was administered were used as controls. The following items were measured with the lapse of time (on the 1st, 4th, 7th, 10th, 14th, 17th, 21st, and 23rd days after the crushing of the scietic nerves).
(1) Change in the action of the side of the hind paw with the crushed scietic nerve:
By a method similar to the method of Hasegawa [Hasegawa, K., Experientia, 34, 750-751 (1978)], the distance between the first and fifth digits of the hind paw was measured.
The ratio of the measured distance to the normal distance was calculated and expressed in percentage (%).
(2) Change in the weight of muscle
It is known that removal of a nerve or its disorder causes atrophy of the muscle which is under its control, and the atrophy is gradually cured by re-control by the nerve. For this reason, a change in the weight of the muscle, which is quantitative, was selected as an index. Twenty-three days after the operation, the soleus muscles of both sides of paws were extracted under anesthesia with pentobarbital, and their weights were measured. The ratio of the weight of the soleus muscle on the crushed side to that of normal side was calculated and expressed in percentage (%).

Molecules are shown by their SMILES.

Regarding `CN1C(=O)Cc2cnc(N3CCNCC3)nc21` [Compound 408], the “Rate of recovery of the interdigit distance” value runs as follows: (21st day, 3 mg/kg ip once a day, saline 62.0 ± 2.4) 70.9 ± 3.5%; (21st day, 10 mg/kg ip once a day, saline 62.0 ± 2.4, *P < 0.05) 74.9 ± 3.1%; (21st day, 30 mg/kg ip once a day, saline 62.0 ± 2.4, ***P < 0.001) 79.6 ± 2.9%; (21st day, 100 mg/kg ip once a day, saline 62.0 ± 2.4) 68.9 ± 4.3%; (23rd day, 3 mg/kg ip once a day, saline 71.1 ± 3.4) 80.1 ± 3.6%; (23rd day, 10 mg/kg ip once a day, saline 71.1 ± 3.4, *P < 0.05) 82.3 ± 2.7%. Besides, the “Rate of recovery of the interdigit distance” value was 85.4 ± 4.1% (23rd day, 30 mg/kg ip once a day, saline 71.1 ± 3.4, *P < 0.05) and 77.3 ± 6.0% (23rd day, 100 mg/kg ip once a day, saline 71.1 ± 3.4). In addition, the “Rate of recovery in muscle weight” value was determined as 58.0 ± 2.0% (23rd day, 3 mg/kg ip, *P < 0.05); 59.4 ± 2.2% (23rd day, 10 mg/kg ip, *P < 0.05); 59.3 ± 2.7% (23rd day, 30 mg/kg ip, *P < 0.05); 63.9 ± 3.5% (23rd day, 100 mg/kg ip, *P < 0.05).

The values above are taken from patent US4959368A, “Therapeutic agent for neurological diseases” (Mitsui Petrochemical Industries Ltd., priority 1986, dated 1990).
